Publication PMC9447987, “Long-term memory CD8^+ T cells specific for SARS-CoV-2 in individuals who received the BNT162b2 mRNA vaccine” (Nature Communications, 2022)
Read-outs that look alike come from different tables or passages of the source.

How the values were obtained:
HLA-A*24:02 = HLA-A*24:02 (Homo sapiens, UniProt P04439, D101N/D140Y/D185E/E176V/E190D/F33S/G103R/G107R/I119L/I121M/I306V/K335N/L105A/L180Q/L300P/N151K/N90K/Q86E/Q94H/R106L/R138H/R89G/T104I/T345S/V100E/W191G/Y123F); assay: HLA stabilization assay using RMA-S-A2402 cells; format: binding; conditions: RMA-S-A2402 cells
[1] = test system: HLA-A*24:02-restricted CD8+ T cells; format: cell-based, human; conditions: for IFN-γ-producing cells among CD8+ T cells (Fig. 1f): bulk T cells
[2] = 14 vaccinated individuals, second time point 11–22 weeks after the first point of analysis

VYSSANNCTF [S-VYF10]
MFI, HLA-A2402 (APC), representative staining (HLA-A*24:02; Suppl. Fig. 3b (for Fig. 4a, 4b), peptide(-) 14.8, 26 °C (Maximum) 32.7): 26.9
MFI, HLA-A2402 (APC), representative staining (HLA-A*24:02; Suppl. Fig. 3c (for Fig. 4c), peptide(-) 11.7, 26 °C (Maximum) 28.9): 32.7
number of individuals with specific T cells at both time points [1, 2]: two
number of individuals with specific T cells at only the first time point [1, 2]: one
IFNg-producing cells among CD8 T cells (%) ([1]; Fig.6a, donor U-32, 1.430 weeks since 2nd dose of vaccination): 0.080%
IFNg-producing cells among CD8 T cells (%) ([1]; Fig.6a, donor U-32, 15.290 weeks since 2nd dose of vaccination): 0.000%
IFNg-producing cells among CD8 T cells (%) ([1]; Fig.6a, donor V1, 19.000 weeks since 2nd dose of vaccination): 0.000%
IFNg-producing cells among CD8 T cells (%) ([1]; Fig.6a, donor V1, 31.710 weeks since 2nd dose of vaccination): 0.710%
IFNg-producing cells among CD8 T cells (%) ([1]; Fig.6a, donor V2, 9.570 weeks since 2nd dose of vaccination): 0.330%
IFNg-producing cells among CD8 T cells (%) ([1]; Fig.6a, donor V2, 31.570 weeks since 2nd dose of vaccination): 0.000%
IFNg-producing cells among CD8 T cells (%) ([1]; Fig.6a, donor V5, 10.570 weeks since 2nd dose of vaccination): 0.000%
IFNg-producing cells among CD8 T cells (%) ([1]; Fig.6a, donor V5, 31.710 weeks since 2nd dose of vaccination): 1.030%
IFNg-producing cells among CD8 T cells (%) ([1]; Fig.6a, donor V6, 9.570 weeks since 2nd dose of vaccination): 0.590%
IFNg-producing cells among CD8 T cells (%) ([1]; Fig.6a, donor V6, 31.000 weeks since 2nd dose of vaccination): 0.930%
IFNg-producing cells among CD8 T cells (%) ([1]; Fig.6a, donor V7, 10.140 weeks since 2nd dose of vaccination): 0.000%
IFNg-producing cells among CD8 T cells (%) ([1]; Fig.6a, donor V7, 31.140 weeks since 2nd dose of vaccination): 0.470%
IFNg-producing cells among CD8 T cells (%) ([1]; Fig.6a, donor V8, 9.860 weeks since 2nd dose of vaccination): 0.000%
IFNg-producing cells among CD8 T cells (%) ([1]; Fig.6a, donor V8, 30.140 weeks since 2nd dose of vaccination): 0.160%
IFNg-producing cells among CD8 T cells (%) ([1]; Fig.6a, donor V9, 20.570 weeks since 2nd dose of vaccination): 0.000%
IFNg-producing cells among CD8 T cells (%) ([1]; Fig.6a, donor V9, 31.570 weeks since 2nd dose of vaccination): 0.930%
IFNg-producing cells among CD8 T cells (%) ([1]; Fig.6a, donor V12, 1.000 weeks since 2nd dose of vaccination): 0.000%
IFNg-producing cells among CD8 T cells (%) ([1]; Fig.6a, donor V12, 9.290 weeks since 2nd dose of vaccination): 0.000%
IFNg-producing cells among CD8 T cells (%) ([1]; Fig.6a, donor V13, 9.000 weeks since 2nd dose of vaccination): 2.650%
IFNg-producing cells among CD8 T cells (%) ([1]; Fig.6a, donor V13, 30.290 weeks since 2nd dose of vaccination): 3.770%
IFNg-producing cells among CD8 T cells (%) ([1]; Fig.6a, donor V14, 2.000 weeks since 2nd dose of vaccination): 1.600%
IFNg-producing cells among CD8 T cells (%) ([1]; Fig.6a, donor V14, 17.000 weeks since 2nd dose of vaccination): 1.540%
IFNg-producing cells among CD8 T cells (%) ([1]; Fig.6a, donor V15, 6.860 weeks since 2nd dose of vaccination): 0.000%
IFNg-producing cells among CD8 T cells (%) ([1]; Fig.6a, donor V15, 25.860 weeks since 2nd dose of vaccination): 0.380%
IFNg-producing cells among CD8 T cells (%) ([1]; Fig.6a, donor V16, 8.860 weeks since 2nd dose of vaccination): 1.180%
IFNg-producing cells among CD8 T cells (%) ([1]; Fig.6a, donor V16, 22.710 weeks since 2nd dose of vaccination): 0.000%
IFNg-producing cells among CD8 T cells (%) ([1]; Fig.6a, donor V17, 4.140 weeks since 2nd dose of vaccination): 0.000%
IFNg-producing cells among CD8 T cells (%) ([1]; Fig.6a, donor V17, 18.000 weeks since 2nd dose of vaccination): 0.000%
IFNg-producing cells among CD8 T cells (%) ([1]; convalescent donor C2, 45.290 weeks since PCR-confirmed diagnosis, […], peptide-pulsed C1R-A2402): 1.019%
IFNg-producing cells among CD8 T cells (%) ([1]; convalescent donor C3, 2.430 weeks since PCR-confirmed diagnosis, […], peptide-pulsed C1R-A2402): 0.261%
IFNg-producing cells among CD8 T cells (%) ([1]; convalescent donor C4, 35.000 weeks since PCR-confirmed diagnosis, […], peptide-pulsed C1R-A2402): 0.317%
IFNg-producing cells among CD8 T cells (%) ([1]; convalescent donor C5, 41.430 weeks since PCR-confirmed diagnosis, […], peptide-pulsed C1R-A2402): 0.327%
IFNg-producing cells among CD8 T cells (%) ([1]; convalescent donor C6, 20.000 weeks since PCR-confirmed diagnosis, […], peptide-pulsed C1R-A2402): 1.170%
IFNg-producing cells among CD8 T cells (%) ([1]; convalescent donor C7, 21.710 weeks since PCR-confirmed diagnosis, […], peptide-pulsed C1R-A2402): 0.230%
IFNg-producing cells among CD8 T cells (%) ([1]; convalescent donor C8, 47.860 weeks since PCR-confirmed diagnosis, […], peptide-pulsed C1R-A2402): 0.410%
IFNg-producing cells among CD8 T cells (%) ([1]; convalescent donor C9, 21.860 weeks since PCR-confirmed diagnosis, […], peptide-pulsed C1R-A2402): 0.000%
IFNg-producing cells among CD8 T cells (%) ([1]; convalescent donor C10, 24.570 weeks since PCR-confirmed diagnosis, […], peptide-pulsed C1R-A2402): 1.220%
IFNg-producing cells among CD8 T cells (%) ([1]; convalescent donor C11, 24.290 weeks since PCR-confirmed diagnosis, […], peptide-pulsed C1R-A2402): 0.000%
IFN-γ-producing cells among CD8+ T cells (Fig. 1f) ([1]; donor V10, 0 weeks since 1st dose of vaccination, C1R-A2402 pre-pulsed with 1 μM peptide): 1.450%
IFN-γ-producing cells among CD8+ T cells (Fig. 1f) ([1]; donor V10, 3 weeks since 1st dose of vaccination, C1R-A2402 pre-pulsed with 1 μM peptide): 0.420%
IFN-γ-producing cells among CD8+ T cells (Fig. 1f) ([1]; donor V10, 5 weeks since 1st dose of vaccination, C1R-A2402 pre-pulsed with 1 μM peptide): 0.290%
IFN-γ-producing cells among CD8+ T cells (Fig. 1f) ([1]; donor V10, 7 weeks since 1st dose of vaccination, C1R-A2402 pre-pulsed with 1 μM peptide): 0.000%
IFN-γ-producing cells among CD8+ T cells (Fig. 1f) ([1]; donor V12, 0 weeks since 1st dose of vaccination, C1R-A2402 pre-pulsed with 1 μM peptide): 0.310%
IFN-γ-producing cells among CD8+ T cells (Fig. 1f) ([1]; donor V12, 3 weeks since 1st dose of vaccination, C1R-A2402 pre-pulsed with 1 μM peptide): 0.000%
IFN-γ-producing cells among CD8+ T cells (Fig. 1f) ([1]; donor V12, 5 weeks since 1st dose of vaccination, C1R-A2402 pre-pulsed with 1 μM peptide): 0.540%
IFN-γ-producing cells among CD8+ T cells (Fig. 1f) ([1]; donor V12, 7 weeks since 1st dose of vaccination, C1R-A2402 pre-pulsed with 1 μM peptide): 0.000%
IFN-γ-producing cells among CD8+ T cells (Fig. 1f) ([1]; donor V14, 0 weeks since 1st dose of vaccination, C1R-A2402 pre-pulsed with 1 μM peptide): 0.000%
IFN-γ-producing cells among CD8+ T cells (Fig. 1f) ([1]; donor V14, 2 weeks since 1st dose of vaccination, C1R-A2402 pre-pulsed with 1 μM peptide): 0.000%
IFN-γ-producing cells among CD8+ T cells (Fig. 1f) ([1]; donor V14, 5 weeks since 1st dose of vaccination, C1R-A2402 pre-pulsed with 1 μM peptide): 1.580%
IFN-γ-producing cells among CD8+ T cells (Fig. 1f) ([1]; donor V14, 7 weeks since 1st dose of vaccination, C1R-A2402 pre-pulsed with 1 μM peptide): 0.000%
number of individuals with specific T cells after the second vaccine dose ([1]; longitudinal analysis of 3 vaccinated individuals): one
Freq of responder (%) ([1]; of 17 vaccinated HLA-A*24:02+ individuals (Fig. 4b)): 23.5%
IFNg-producing cells among CD8 T cells (%) ([1]; vaccinated donor V1, 19.000 weeks since 2nd dose, […], C1R-A2402 pre-pulsed with 1 μM peptide): 0%
IFNg-producing cells among CD8 T cells (%) ([1]; vaccinated donor V2, 9.570 weeks since 2nd dose, […], C1R-A2402 pre-pulsed with 1 μM peptide): 0.331%
IFNg-producing cells among CD8 T cells (%) ([1]; vaccinated donor V3, 8.860 weeks since 2nd dose, […], C1R-A2402 pre-pulsed with 1 μM peptide): 0.073%
IFNg-producing cells among CD8 T cells (%) ([1]; vaccinated donor V4, 10.430 weeks since 2nd dose, […], C1R-A2402 pre-pulsed with 1 μM peptide): 2.41%
IFNg-producing cells among CD8 T cells (%) ([1]; vaccinated donor V5, 10.570 weeks since 2nd dose, […], C1R-A2402 pre-pulsed with 1 μM peptide): 0%
IFNg-producing cells among CD8 T cells (%) ([1]; vaccinated donor V6, 9.570 weeks since 2nd dose, […], C1R-A2402 pre-pulsed with 1 μM peptide): 0.593%
IFNg-producing cells among CD8 T cells (%) ([1]; vaccinated donor V7, 10.140 weeks since 2nd dose, […], C1R-A2402 pre-pulsed with 1 μM peptide): 0%
IFNg-producing cells among CD8 T cells (%) ([1]; vaccinated donor V8, 9.860 weeks since 2nd dose, […], C1R-A2402 pre-pulsed with 1 μM peptide): 0%
IFNg-producing cells among CD8 T cells (%) ([1]; vaccinated donor V9, 20.570 weeks since 2nd dose, […], C1R-A2402 pre-pulsed with 1 μM peptide): 0%
IFNg-producing cells among CD8 T cells (%) ([1]; vaccinated donor V10, 2.000 weeks since 2nd dose, […], C1R-A2402 pre-pulsed with 1 μM peptide): 0.3%
IFNg-producing cells among CD8 T cells (%) ([1]; vaccinated donor V11, 1.430 weeks since 2nd dose, […], C1R-A2402 pre-pulsed with 1 μM peptide): 0.076%
IFNg-producing cells among CD8 T cells (%) ([1]; vaccinated donor V12, 1.000 weeks since 2nd dose, […], C1R-A2402 pre-pulsed with 1 μM peptide): 0%
IFNg-producing cells among CD8 T cells (%) ([1]; vaccinated donor V13, 9.000 weeks since 2nd dose, […], C1R-A2402 pre-pulsed with 1 μM peptide): 2.649%
IFNg-producing cells among CD8 T cells (%) ([1]; vaccinated donor V14, 2.000 weeks since 2nd dose, […], C1R-A2402 pre-pulsed with 1 μM peptide): 1.601%
IFNg-producing cells among CD8 T cells (%) ([1]; vaccinated donor V15, 6.860 weeks since 2nd dose, […], C1R-A2402 pre-pulsed with 1 μM peptide): 0%
IFNg-producing cells among CD8 T cells (%) ([1]; vaccinated donor V16, 8.860 weeks since 2nd dose, […], C1R-A2402 pre-pulsed with 1 μM peptide): 1.178%
IFNg-producing cells among CD8 T cells (%) ([1]; vaccinated donor V17, 4.140 weeks since 2nd dose, […], C1R-A2402 pre-pulsed with 1 μM peptide): 0%
time after the second vaccine dose for which epitope-specific memory CD8+ T cells were detectable / maintained ([1]; vaccinated individuals (8 individuals)): > 30 weeks
